A word on the melting point: it is the temperature, or range, at which the solid turns liquid.

Like-named read-outs stand apart in the source and are kept apart here.

This is an account of results in patent USRE47689E1, “Compounds for treating spinal muscular atrophy” (PTC Therapeutics, Inc., priority 2011, dated 2019).

Series [1] has as its system Smn protein. Description: Smn protein assay in cultured cells (SMN HTRF). It is filed as cell-based, human. To be noted: 48 hours; for EC1.5x (concentration giving 1.5-fold Smn protein increase): SMA Type 1 patient fibroblast cells (GM03813), 7-point concentration curve, SMN HTRF, concentration producing 1.5 times Smn protein vs DMSO vehicle control, read-out: EC1.5x for Smn protein expression; for maximum fold (Fold) increase of Smn protein: SMA patient fibroblast cells, 7-point concentration data, fold increase relative to vehicle control (SMN HTRF). A digest of the protocol:
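Smn in SMA fibroblast lysates, measured by anti-SMN HTRF after 48 h compound exposure; EC1.5x from fold change over vehicle.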

The subject of series [2] is SMN2 minigene (full length SMN2 minigene mRNA containing SMN2 exon 7). Description: SMN2 minigene mRNA splicing RT-qPCR assay in cultured cells. The class given is cell-based, human. Particulars: Homo sapiens, HEK293-H, read-out: EC1.5x for production of full length SMN2 mRNA. Put shortly:
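Full-length SMN2 minigene mRNA (exon 7 included), minigene-specific and not endogenous SMN, quantified by RT-qPCR multiplexed with GAPDH in stably transfected HEK293H cells after 24 h compound exposure at 37° C. Abundance from efficiency-corrected Ct, normalized to GAPDH and vehicle; EC1.5x reported as star bins.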
(Quantitative PCR measures a nucleic acid by following its amplification.)

[3] abbreviates: HEK293H cells stably transfected with SMN2-A minigene, 24 hours, 7-point concentration curve, 1.5-fold relative to vehicle-treated cells.

In turn, `Cc1cn2cc(-c3cc4ccc(N5CCN(CCO)CC5)cc4oc3=O)nc2cn1` [Compound 837, 7-[4-(2-hydroxyethyl)piperazin-1-yl]-3-(6-methylimidazo[1,2-a]pyrazin-2-yl)-2H-chromen-2-one] displayed a melting point of 246 to 252 °C. For the same compound, in series [1], the EC1.5x (concentration giving 1.5-fold Smn protein increase) is less than 300 nM and the “maximum fold (Fold) increase of Smn protein” value (from here on “maximum fold (Fold) increase”) is given as “***** (fold increase >1.65)”. Also, the EC (1.5-fold) in series [2] (setting [3]) is less than 0.1 µM.
`O=c1oc2cc(N3CCNCC3)ccc2cc1-c1cccc(OC2CCC2)n1` [Compound 414, 3-[6-(cyclobutyloxy)pyridin-2-yl]-7-(piperazin-1-yl)-2H-chromen-2-one] showed a melting point of 166 to 168 °C. The “maximum fold (Fold) increase” value in series [1] is “* (maximum fold increase of ≤1.2)”. For the same compound, the EC (1.5-fold) in series [2] (setting [3]) lay in the range of 3 to 30 µM.
For the compound `C[C@@H]1CN(c2ccc3cc(-c4cn5ccncc5n4)c(=O)oc3c2)C[C@H](C)N1` [Compound 417, 7-[(3R,5S)-3,5-dimethylpiperazin-1-yl]-3-(imidazo[1,2-a]pyrazin-2-yl)-2H-chromen-2-one], the melting point fell in the range of 248 to 250 °C. In addition, in series [1], the EC1.5x (concentration giving 1.5-fold Smn protein increase) is less than 300 nM; the “maximum fold (Fold) increase” value was “*** (fold increase between >1.35 and ≤1.5)”. For the same compound, the EC (1.5-fold) in series [2] (setting [3]) lay within 0.1 to 0.3 µM.
As for `Cc1cc2cc(-c3cc4ccc(N5CCN[C@@H](C)C5)cc4oc3=O)oc2c(C)n1` [Compound 804, 3-(5,7-dimethylfuro[2,3-c]pyridin-2-yl)-7-[(3S)-3-methylpiperazin-1-yl]-2H-chromen-2-one], the melting point was in the range of 253 to 257 °C. In addition, in series [1], the EC1.5x (concentration giving 1.5-fold Smn protein increase) is less than 300 nM and the “maximum fold (Fold) increase” value is “***** (fold increase >1.65)”. For the same compound, the EC (1.5-fold) in series [2] (setting [3]) is less than 0.1 µM.
For `Cc1ccn2cc(-c3cc4ccc(N[C@@H]5CCNC5)cc4oc3=O)nc2c1` [Compound 496, 3-(7-methylimidazo[1,2-a]pyridin-2-yl)-7-[(3R)-pyrrolidin-3-ylamino]-2H-chromen-2-one], the melting point lay within 244 to 254 °C. Moreover, the “maximum fold (Fold) increase” value in series [1] is “* (maximum fold increase of ≤1.2)”. Moreover, the EC (1.5-fold) in series [2] (setting [3]) was 0.3 to 1 µM.
As for `C[C@H]1CN(c2ccc3cc(-c4ccc5c(c4)OCO5)c(=O)oc3c2)CCN1` [Compound 489, 3-(1,3-benzodioxol-5-yl)-7-[(3S)-3-methylpiperazin-1-yl]-2H-chromen-2-one], the melting point is 134 to 136 °C. In addition, in series [1], the “maximum fold (Fold) increase” value is “* (maximum fold increase of ≤1.2)”. The EC (1.5-fold) in series [2] (setting [3]) lay in the range of 3 to 30 µM.
As to `CCN1C[C@@H]2C[C@H]1CN2c1ccc2cc(-c3cn4cc(C)nc(C)c4n3)c(=O)oc2c1` [Compound 793, 3-(6,8-dimethylimidazo[1,2-a]pyrazin-2-yl)-7-[(1S,4S)-5-ethyl-2,5-diazabicyclo[2.2.1]hept-2-yl]-2H-chromen-2-one], the melting point was in the range of 133 to 135 °C. In series [1], the EC1.5x (concentration giving 1.5-fold Smn protein increase) was less than 300 nM; the “maximum fold (Fold) increase” value was “**** (fold increase between >1.5 and ≤1.65)”. The EC (1.5-fold) in series [2] (setting [3]) was less than 0.1 µM.
The compound `CCc1nc(C)cn2cc(-c3cc4ccc(N5CCN(C)CC5)cc4oc3=O)nc12` [Compound 830, 3-(8-ethyl-6-methylimidazo[1,2-a]pyrazin-2-yl)-7-(4-methylpiperazin-1-yl)-2H-chromen-2-one] gave a melting point of 210 to 215 °C. In series [1], the EC1.5x (concentration giving 1.5-fold Smn protein increase) is less than 300 nM and the “maximum fold (Fold) increase” value is “***** (fold increase >1.65)”. Moreover, the EC (1.5-fold) in series [2] (setting [3]) was less than 0.1 µM.
For `Cc1cn2cc(-c3cc4ccc(OCCN[C@@H](C)CO)cc4oc3=O)nc2c(C)n1` [Compound 947, 3-(6,8-dimethylimidazo[1,2-a]pyrazin-2-yl)-7-(2-{[(2S)-1-hydroxypropan-2-yl]amino}ethoxy)-2H-chromen-2-one], the melting point fell in the range of 186 to 188 °C. In series [1], the EC1.5x (concentration giving 1.5-fold Smn protein increase) is less than 300 nM; the “maximum fold (Fold) increase” value was “**** (fold increase between >1.5 and ≤1.65)”. Further, in series [2] (setting [3]), the EC (1.5-fold) was less than 0.1 µM.
In turn, `CN1CCN(c2ccc3cc(-c4cn5ccc(C(F)(F)F)cc5n4)c(=O)oc3c2)CC1` [Compound 115, 7-(4-methylpiperazin-1-yl)-3-[7-(trifluoromethyl)imidazo[1,2-a]pyridin-2-yl]-2H-chromen-2-one] showed a melting point of 274 to 280 °C. Besides, in series [1], the “maximum fold (Fold) increase” value is “*** (fold increase between >1.35 and ≤1.5)”. In series [2] (setting [3]), the EC (1.5-fold) lay in the range of 0.3 to 1 µM.
`Cc1cc(F)c2nc(-c3cc4ccc(N5CCN6CCC5CC6)cc4oc3=O)cn2c1` [Compound 561, 7-(1,4-diazabicyclo[3.2.2]non-4-yl)-3-(8-fluoro-6-methylimidazo[1,2-a]pyridin-2-yl)-2H-chromen-2-one] had a melting point of 287 to 297 °C. Also, in series [1], the EC1.5x (concentration giving 1.5-fold Smn protein increase) is less than 300 nM; the “maximum fold (Fold) increase” value is “**** (fold increase between >1.5 and ≤1.65)”. The EC (1.5-fold) in series [2] (setting [3]) lay in the range of 0.3 to 1 µM.
Regarding `Cc1nc2ccc(-c3cc4ccc(N5CCN(C)CC5)cc4oc3=O)cc2s1` [Cpd 769, 3-(2-methyl-1,3-benzothiazol-6-yl)-7-(4-methylpiperazin-1-yl)-2H-chromen-2-one], the melting point lay within 215 to 217 °C. For the same compound, the “maximum fold (Fold) increase” value in series [1] is “** (fold increase between >1.2 and ≤1.35)”. Also, in series [2] (setting [3]), the EC (1.5-fold) is 0.3 to 1 µM.
In the case of `Cc1cn2cc(-c3cc4ccc(CCCNC(C)CO)cc4oc3=O)nc2c(C)n1` (stereo not drawn) [Compound 881, 3-(6,8-dimethylimidazo[1,2-a]pyrazin-2-yl)-7-{3-[(1-hydroxypropan-2-yl)amino]propyl}-2H-chromen-2-one], the melting point lay within 181 to 184 °C. In series [1], the EC1.5x (concentration giving 1.5-fold Smn protein increase) is less than 300 nM; the “maximum fold (Fold) increase” value was “**** (fold increase between >1.5 and ≤1.65)”. Besides, in series [2] (setting [3]), the EC (1.5-fold) is less than 0.1 µM.
`Cc1cn2cc(-c3cc4ccc(OCCN5CCCCC5)cc4oc3=O)nc2c(C)n1` [Compound 953, 3-(6,8-dimethylimidazo[1,2-a]pyrazin-2-yl)-7-[2-(piperidin-1-yl)ethoxy]-2H-chromen-2-one]: the melting point lay within 178 to 190 °C. For the same compound, in series [1], the EC1.5x (concentration giving 1.5-fold Smn protein increase) was less than 300 nM; the “maximum fold (Fold) increase” value is “**** (fold increase between >1.5 and ≤1.65)”. In addition, the EC (1.5-fold) in series [2] (setting [3]) was less than 0.1 µM.
As for `CCN1CCCN(c2ccc3cc(-c4cc5cnc(C)cn5c4)c(=O)oc3c2)CC1` [Compound 667, 7-(4-ethyl-1,4-diazepan-1-yl)-3-(3-methylpyrrolo[1,2-a]pyrazin-7-yl)-2H-chromen-2-one], the melting point lay in the range of 130 to 133 °C. For the same compound, in series [1], the EC1.5x (concentration giving 1.5-fold Smn protein increase) was less than 300 nM; the “maximum fold (Fold) increase” value was “**** (fold increase between >1.5 and ≤1.65)”. Also, in series [2] (setting [3]), the EC (1.5-fold) was less than 0.1 µM.
Take `Cc1csc2nc(-c3cc4ccc(N5CCNCC5)cc4oc3=O)cn12` [Compound 98, 3-(3-methylimidazo[2,1-b][1,3]thiazol-6-yl)-7-(piperazin-1-yl)-2H-chromen-2-one]: the melting point is more than 300 °C. Moreover, in series [1], the EC1.5x (concentration giving 1.5-fold Smn protein increase) fell in the range of 1000 to 3000 nM; the “maximum fold (Fold) increase” value was “*** (fold increase between >1.35 and ≤1.5)”. Also, the EC (1.5-fold) in series [2] (setting [3]) is 1 to 3 µM.
On to `Cc1c[nH]nc1-c1cc2ccc(N3CCNCC3)cc2oc1=O` [Cpd 80, 3-(4-methyl-1H-pyrazol-3-yl)-7-(piperazin-1-yl)-2H-chromen-2-one], for which the melting point is 175 to 200 °C (dec.). Moreover, the “maximum fold (Fold) increase” value in series [1] is “** (fold increase between >1.2 and ≤1.35)”. Also, the EC (1.5-fold) in series [2] (24 h) was 3 to 30 µM.
The compound `Cc1ccc2nc(-c3cc4ccc(CNC(C)CO)cc4oc3=O)cn2c1` (stereo not drawn) [Compound 251, 7-{[(1-hydroxypropan-2-yl)amino]methyl}-3-(6-methylimidazo[1,2-a]pyridin-2-yl)-2H-chromen-2-one] returned a melting point of 224 to 227 °C. Further, the “maximum fold (Fold) increase” value in series [1] is “* (maximum fold increase of ≤1.2)”. Besides, the EC (1.5-fold) in series [2] (setting [3]) lay in the range of 3 to 30 µM.
In the case of `CCc1ccn2cc(-c3cc4ccc(N5CCCN(C)CC5)cc4oc3=O)nc2c1` [Compound 333, 3-(7-ethylimidazo[1,2-a]pyridin-2-yl)-7-(4-methyl-1,4-diazepan-1-yl)-2H-chromen-2-one], the melting point was 181 to 187 °C. Moreover, the “maximum fold (Fold) increase” value in series [1] is reported as “* (maximum fold increase of ≤1.2)”. For the same compound, the EC (1.5-fold) in series [2] (setting [3]) fell in the range of 0.3 to 1 µM.
As to `Cc1nccn2cc(-c3cc4ccc(N5CCN[C@@H](C)C5)cc4oc3=O)cc12` [Compound 566, 7-[(3S)-3-methylpiperazin-1-yl]-3-(1-methylpyrrolo[1,2-a]pyrazin-7-yl)-2H-chromen-2-one], the melting point was in the range of 184 to 186 °C. In series [1], the EC1.5x (concentration giving 1.5-fold Smn protein increase) was less than 300 nM; the “maximum fold (Fold) increase” value is “**** (fold increase between >1.5 and ≤1.65)”. Also, in series [2] (setting [3]), the EC (1.5-fold) was less than 0.1 µM.
